pIC50: −log10 of the molar value.
How the values were obtained:
[1] = AUClast in Sprague-Dawley rat at 10 mg/kg, po administered as solution measured upto 24 hrs by LC-MS/MS analysis; format: ADME, organism-based; parameters: dose 10 mg/kg, time < 24 hrs, route po; settings: in vivo
[2] = Effect on parathyroid hormone in overnight fasted Sprague-Dawley rat assessed as reduction in plasma PTH level at 10 mg/kg, po measured after 2 hrs of post treatment by sandwich ELISA analysis; format: functional; parameters: scale not given: the % may be the effect or the level left
[3] = Effect on parathyroid hormone in overnight fasted Sprague-Dawley rat assessed as reduction in plasma PTH level at 10 mg/kg, po measured after 4 hrs of post treatment by sandwich ELISA analysis (reference value: 18%); format: functional; parameters: scale not given: the % may be the effect or the level left
[4] = Effect on parathyroid hormone in overnight fasted Sprague-Dawley rat assessed as reduction in plasma PTH level at 3 mg/kg, po measured after 2 hrs of post treatment by sandwich ELISA analysis; format: functional; parameters: scale not given: the % may be the effect or the level left
[5] = system: Rattus norvegicus; experiment: Acute effect on parathyroid hormone in overnight fasted adenine diet-induced chronic kidney disease Wistar rat model plasma assessed as reduction in plasma PTH level at 1 mg/kg, po measured after 4 hrs of post treatment by sandwich ELISA analysis; format: functional; parameters: scale not given: the % may be the effect or the level left
[6] = system: Rattus norvegicus; experiment: Subchronic effect on parathyroid hormone in overnight fasted adenine diet-induced chronic kidney disease Wistar rat model plasma assessed as reduction in plasma PTH level at 0.1 mg/kg, po qd measured after 27 days of post treatment by sandwich ELISA analysis; format: functional; parameters: scale not given: the % may be the effect or the level left; settings: time 27 day
[7] = system: Rattus norvegicus; experiment: Subchronic effect on parathyroid hormone in overnight fasted adenine diet-induced chronic kidney disease Wistar rat model plasma assessed as reduction in plasma PTH level at 0.3 mg/kg, po qd measured after 27 days of post treatment by sandwich ELISA analysis; format: functional; parameters: scale not given: the % may be the effect or the level left; settings: time 27 day
[8] = Metabolic stability in mouse liver S9 fraction measured upto 60 mins by LC-MS/MS method; format: ADME, subcellular; settings: read-out: Stability
[9] = target: T1, CYP1A2 (Homo sapiens, UniProt P05177); experiment: Inhibition of CYP1A2 in human liver microsomes at 10 uM preincubated for 5 mins followed by NADPH addition by LC-MS/MS analysis relative to control; format: ADME, Microsome
T1 sequence (P05177 whole entry): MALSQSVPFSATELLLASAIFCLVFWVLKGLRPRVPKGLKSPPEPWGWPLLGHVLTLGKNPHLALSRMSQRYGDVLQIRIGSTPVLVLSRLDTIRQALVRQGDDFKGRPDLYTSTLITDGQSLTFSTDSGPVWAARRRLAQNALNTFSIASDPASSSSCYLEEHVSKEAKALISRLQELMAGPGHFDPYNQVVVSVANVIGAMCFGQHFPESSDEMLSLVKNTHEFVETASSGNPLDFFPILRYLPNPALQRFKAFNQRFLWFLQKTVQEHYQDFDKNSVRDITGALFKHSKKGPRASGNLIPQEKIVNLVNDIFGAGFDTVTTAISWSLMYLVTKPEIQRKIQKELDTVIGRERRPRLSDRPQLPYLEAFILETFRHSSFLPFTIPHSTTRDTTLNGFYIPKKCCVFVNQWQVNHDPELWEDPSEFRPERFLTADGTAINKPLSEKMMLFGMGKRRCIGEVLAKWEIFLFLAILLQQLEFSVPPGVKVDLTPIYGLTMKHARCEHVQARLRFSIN

[10] = target: T2, Cytochrome P450 2A6 (Homo sapiens, UniProt P11509); experiment: Inhibition of CYP2A6 in human liver microsomes preincubated for 5 mins followed by NADPH addition by LC-MS/MS analysis; format: ADME, Microsome
T2 sequence (P11509 whole entry): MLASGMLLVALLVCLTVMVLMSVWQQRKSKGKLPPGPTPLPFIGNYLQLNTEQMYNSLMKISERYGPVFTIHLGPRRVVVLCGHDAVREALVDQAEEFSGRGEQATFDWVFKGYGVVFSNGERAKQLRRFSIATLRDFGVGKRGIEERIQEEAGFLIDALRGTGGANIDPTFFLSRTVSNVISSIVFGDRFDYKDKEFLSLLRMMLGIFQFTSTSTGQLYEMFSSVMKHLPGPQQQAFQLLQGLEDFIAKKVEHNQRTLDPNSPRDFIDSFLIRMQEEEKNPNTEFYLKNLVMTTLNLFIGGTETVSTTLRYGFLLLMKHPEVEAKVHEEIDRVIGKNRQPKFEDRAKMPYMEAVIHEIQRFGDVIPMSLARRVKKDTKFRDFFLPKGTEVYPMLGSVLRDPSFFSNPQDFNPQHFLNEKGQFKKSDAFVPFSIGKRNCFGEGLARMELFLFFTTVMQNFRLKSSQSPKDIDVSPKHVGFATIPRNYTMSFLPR

[11] = Half life in BALB/c mouse at 1 mg/kg, iv measured upto 24 hrs by LC/MS-MS analysis; format: ADME, organism-based; settings: in vivo
[12] = Cmax in BALB/c mouse at 10 mg/kg, po measured upto 24 hrs by LC/MS-MS analysis; format: ADME, organism-based; parameters: dose 10 mg/kg, time < 24 hrs, route po; settings: in vivo
[13] = Cmax in Sprague-Dawley rat at 10 mg/kg, po measured upto 24 hrs by LC/MS-MS analysis; format: ADME, organism-based; parameters: dose 10 mg/kg, time < 24 hrs, route po; settings: in vivo
[14] = Ratio of drug concentration in blood to thyroid in Sprague-Dawley rat at 10 mg/kg, po measured upto 24 hrs by LC-MS/MS analysis; format: ADME, organism-based; settings: in vivo
[15] = Toxicity in rat assessed as maximum tolerated dose; settings: in vivo

Question: Which results are given for `Cc1ccc([C@@H]2C[C@H](CN[C@H](C)c3cccc4ccccc34)Oc3ccccc32)cc1C(=O)O.Cl`?
Answer: AUC(0-t) at 24 h [1]: 71 µM·h; Activity [2]: 99%; Activity [3]: 88%; Activity [4]: 100%; Activity [5]: 84%; Activity [6]: 62%; Activity [7]: 73%; remaining at 1 h [8]: > 80%; inhibition at 10 µM [9]: 0%; pIC50 [10]: 4.39; half-life [11]: 180 min; Cmax [12]: 31 µM; Cmax [13]: 14 µM; Ratio [14]: 0.3; MTD [15]: 1000 mg/kg

Reference: ChEMBL document CHEMBL5346964, “Discovery of LNP1892: A Precision Calcimimetic for the Treatment of Secondary Hyperparathyroidism” (J Med Chem, 2023)
